{
  "source": "patent US20100016353A1",
  "about": "“BENZOIMIDAZOLE DERIVATIVES USEFUL AS ANTIPROLIFERATIVE AGENTS” (priority 2004, published 2010)",
  "key": {"[1]": {"assay": "Metabolite identification, human liver cytosol incubation of parent compound", "format": "in vitro ADME", "conditions": "parent incubated in human liver cytosol", "experimental": "Cytosol: 1-{2-[5-(3-Methyl-oxetan-3-ylmethoxy)-benzoimidazol-1-yl]-quinolin-8-yl}-piperidin-4-ylamine (10 μM) was incubated and prepared for analysis. Cryopreserved human liver cytosol from Tissue Transformation Technologies Inc., Edison, N.J., (lot: HHC-0255, ˜20 mg/mL) and dog liver cytosol (˜35 mg/mL) were thawed on ice immediately before the incubation. The cytosol was diluted 10-fold in 100 mM potassium phosphate buffer (pH 7.4) before addition of 1-{2-[5-(3-Methyl-oxetan-3-ylmethoxy)-benzoimidazol-1-yl]-quinolin-8-yl}-piperidin-4-ylamine (final concentration […]) for a final incubation volume of 2 mL. Samples were incubated for one hour in a 37° C. water bath, then quenched with two volumes of acetonitrile. Samples were vortexed and subsequently centrifuged at 3000 rpm. Samples were prepared for analysis by centrifugation at 3000 rpm to pellet the precipitated proteins and by evaporating the supernatant to dryness. The samples were reconstituted in 300 μL 50/50 10 mM ammonium formate, pH 3.0/acetonitrile. A 10 μL reconstituted aliquot was analyzed by LC/MS/MS. 1-{2-[5-(2-Methoxy-ethoxy)-benzoimidazol-1-yl]-quinolin-8-yl}-piperidin-4-ylamine was incubated in human and dog liver cytosol under the same conditions as a positive control.\nSeparation of 1-{2-[5-(3-Methyl-oxetan-3-ylmethoxy)-benzoimidazol-1-yl]-quinolin-8-yl}-piperidin-4-ylamine and its metabolites in all samples was accomplished on a Zorbax SB-C18 reverse phase column (5 μm, 4.6×150 mm) at a flow rate of 1.0 mL/min. The mobile phase consisted of 10 mM ammonium formate, pH 3.0, (A) and acetonitrile (B). After injection of the sample, the column was washed with 10% B for 5 minutes followed by resolution of the metabolites with a linear gradient from 10% to 50% B over a 20-minute period. A 5-minute wash with 90% B followed by a 7-minute re-equilibration to 10% B was used between subsequent injections.\nAll Samples were analyzed by a Finnigan TSQ7000 mass spectrometer operated in positive ion mode with in-line ultraviolet detection (Shimadzu, λ=254 nm). Ionspray voltage and capillary temperature were maintained at 4.5 kV and 350 degrees Celsius, respectively. Product ion spectra were obtained with CID of 35 V; further fragmentation was obtained by conducting product ion scans with source CID of 10 V. Neutral loss scans of 176 (for glucuronide detection) were conducted with CID of 30 V.\nThe metabolites were initially identified by molecular ion (Q1) scans of the sample mixture. Potential metabolites were characterized by fragmentation of the metabolite molecular ions and comparison of the resulting fragmentation patterns with the 1-{2-[5-(3-Methyl-oxetan-3-ylmethoxy)-benzoimidazol-1-yl]-quinolin-8-yl}-piperidin-4-ylamine product mass spectrum."}, "[2]": {"assay": "Metabolite identification in dog bile after administration of parent compound", "format": "in vivo, beagle dogs", "conditions": "dog, after 5.0 mg/kg oral administration of parent"}, "[3]": {"molecular_target": "T1, microsomal epoxide hydrolase (Homo sapiens, UniProt P07099)", "T1 sequence (P07099 1-455)": "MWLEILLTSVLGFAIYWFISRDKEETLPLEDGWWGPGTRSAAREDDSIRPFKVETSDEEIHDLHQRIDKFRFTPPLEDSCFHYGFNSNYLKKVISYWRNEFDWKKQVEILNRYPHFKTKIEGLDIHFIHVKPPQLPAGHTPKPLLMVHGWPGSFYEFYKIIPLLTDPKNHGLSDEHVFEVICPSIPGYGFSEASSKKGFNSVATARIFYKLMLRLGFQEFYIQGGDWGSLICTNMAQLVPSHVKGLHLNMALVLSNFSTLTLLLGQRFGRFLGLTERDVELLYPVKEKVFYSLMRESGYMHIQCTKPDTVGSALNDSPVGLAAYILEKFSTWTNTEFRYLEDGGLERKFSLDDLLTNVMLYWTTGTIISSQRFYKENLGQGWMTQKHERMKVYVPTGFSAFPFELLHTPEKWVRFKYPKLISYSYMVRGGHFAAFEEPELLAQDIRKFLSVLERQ", "assay": "Microsomal epoxide hydrolase inhibitor studies", "format": "in vitro ADME"}},
  "data": [
    {"smiles": "CC1(COc2ccc3c(c2)ncn3-c2ccc3cccc(N4CCC(N)CC4)c3n2)COC1", "note": "[1-{2-[5-(3-Methyl-oxetan-3-ylmethoxy)-benzoimidazol-1-yl]-quinolin-8-yl}-piperidin-4-ylamine, reference compound]", "values": [
      {"measurement": "Metabolites in human liver cytosolic incubations", "setting": "[1]", "value": "No metabolites were observed"},
      {"measurement": "Excretion in bile", "setting": "[2]", "value": "appears to be excreted in bile"},
      {"measurement": "Substrate for microsomal epoxide hydrolase", "setting": "[3]", "value": "not a substrate"}
    ]}
  ]
}
